For assay [1], the target named is Sphingosine 1-phosphate receptor 5 (Homo sapiens, UniProt Q9H228). Briefly: Late stage counterscreen assay for S1P4 antagonists: Fluorescence dose response cell-based screening assay for antagonists of the Sphingosine 1-Phosphate Receptor 5 (S1P5). [Related pubchem assays (depositor defined):AID1510, AID1524, AID1692, AID1853, AID2332, AID489009, AID489017]. The assay is classed as functional. Background: A counterscreen serves to expose hits that act by an unwanted route or on another target.

Assay [2] deals with Sphingosine 1-phosphate receptor 3 (Homo sapiens, UniProt Q99500). In words: Late stage counterscreen assay for S1P4 antagonists: Fluorescence dose response cell-based screening assay for antagonists of the Sphingosine 1-Phosphate Receptor 3 (S1P3). [Related pubchem assays (depositor defined):AID1510, AID1524, AID1692, AID1853, AID2332, AID489009, AID489017]. The assay is classed as functional.

Assay [3] concerns the target Sphingosine 1-phosphate receptor 1 (Homo sapiens, UniProt P21453). Briefly: Late stage counterscreen assay for S1P4 antagonists: Fluorescence dose response cell-based screening assay for antagonists of the Sphingosine 1-Phosphate Receptor 1 (S1P1). [Related pubchem assays (depositor defined):AID1510, AID1524, AID1692, AID1853, AID2332, AID489009, AID489017]. The assay is classed as functional.

Assay [4] has as its target T1, Sphingosine 1-phosphate receptor 4 (Homo sapiens, UniProt O95977).
T1 sequence (O95977 whole entry): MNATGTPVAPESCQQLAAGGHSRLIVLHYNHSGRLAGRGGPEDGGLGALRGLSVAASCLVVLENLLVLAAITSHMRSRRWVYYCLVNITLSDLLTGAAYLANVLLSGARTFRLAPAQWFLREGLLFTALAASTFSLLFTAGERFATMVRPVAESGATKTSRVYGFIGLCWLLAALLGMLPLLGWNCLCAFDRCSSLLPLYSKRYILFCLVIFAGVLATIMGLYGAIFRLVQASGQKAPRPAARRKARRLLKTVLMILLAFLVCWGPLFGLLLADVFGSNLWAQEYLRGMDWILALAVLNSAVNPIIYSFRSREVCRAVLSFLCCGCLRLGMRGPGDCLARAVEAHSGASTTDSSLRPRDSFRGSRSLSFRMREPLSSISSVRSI
In words: potency of S1P4 blockers – cell-based, fluorescence, synthesized analogues, late-stage follow-up (AID 2346). The assay is classed as functional.

The target in assay [5] is Sphingosine 1-phosphate receptor 2 (Homo sapiens, UniProt O95136). In words: Late stage counterscreen assay for S1P4 antagonists: Fluorescence dose response cell-based screening assay for antagonists of the Sphingosine 1-Phosphate Receptor 2 (S1P2). [Related pubchem assays (depositor defined):AID1510, AID1524, AID1692, AID1853, AID2332, AID489009, AID489017]. The assay is classed as functional.

Assay [6] deals with Streptococcus sp. 'group A'. In words: Streptococcus pyogenes SK(-)GAS viability under kanamycin – luminescence, BacTiterGlo, confirmation, counter-screen for streptokinase expression inhibitor project, dose response (AID 1900). The assay is classed as functional, organism-based.
The next assay addresses T2, Streptokinase A (Streptococcus pyogenes serotype M1, UniProt P10520).
T2 sequence (P10520 whole entry): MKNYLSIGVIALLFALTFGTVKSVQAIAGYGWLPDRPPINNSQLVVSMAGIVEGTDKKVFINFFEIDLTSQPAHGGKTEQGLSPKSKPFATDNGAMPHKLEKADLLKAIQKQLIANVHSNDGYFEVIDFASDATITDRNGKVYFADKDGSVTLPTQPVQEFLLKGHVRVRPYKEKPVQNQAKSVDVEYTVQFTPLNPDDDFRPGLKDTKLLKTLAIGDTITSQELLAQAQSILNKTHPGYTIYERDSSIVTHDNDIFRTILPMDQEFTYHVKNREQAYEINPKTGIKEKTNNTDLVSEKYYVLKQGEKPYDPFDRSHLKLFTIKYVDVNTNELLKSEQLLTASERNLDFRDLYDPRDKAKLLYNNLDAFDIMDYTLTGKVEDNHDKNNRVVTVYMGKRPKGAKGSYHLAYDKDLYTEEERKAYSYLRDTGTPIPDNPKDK
Briefly: viability-normalized secreted streptokinase activity reduction – plasminogen activation absorbance, OD405, dose response (AID 1914).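 Also: secreted streptokinase activity via plasminogen activation per viability signal from cell pellet.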 The class given is functional, Streptococcus pyogenes M1 GAS.

For a further assay, the system named is Streptococcus. Briefly: GAS UMAA2166 growth inhibition – luminescence, BacTiterGlo, counter-screen for streptokinase expression inhibitor project, dose response (AID 1915).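 Also: potency for reduction of bacterial viability or growth.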 The class given is functional, organism-based.
The target of assay [7] is Intestinal-type alkaline phosphatase (Mus musculus, UniProt P24822). In words: PubChem AID 488785. The class given is functional.
Assay [8] concerns the target T3, Alkaline phosphatase, tissue-nonspecific isozyme (Homo sapiens, UniProt P05186).
T3 sequence (P05186 whole entry): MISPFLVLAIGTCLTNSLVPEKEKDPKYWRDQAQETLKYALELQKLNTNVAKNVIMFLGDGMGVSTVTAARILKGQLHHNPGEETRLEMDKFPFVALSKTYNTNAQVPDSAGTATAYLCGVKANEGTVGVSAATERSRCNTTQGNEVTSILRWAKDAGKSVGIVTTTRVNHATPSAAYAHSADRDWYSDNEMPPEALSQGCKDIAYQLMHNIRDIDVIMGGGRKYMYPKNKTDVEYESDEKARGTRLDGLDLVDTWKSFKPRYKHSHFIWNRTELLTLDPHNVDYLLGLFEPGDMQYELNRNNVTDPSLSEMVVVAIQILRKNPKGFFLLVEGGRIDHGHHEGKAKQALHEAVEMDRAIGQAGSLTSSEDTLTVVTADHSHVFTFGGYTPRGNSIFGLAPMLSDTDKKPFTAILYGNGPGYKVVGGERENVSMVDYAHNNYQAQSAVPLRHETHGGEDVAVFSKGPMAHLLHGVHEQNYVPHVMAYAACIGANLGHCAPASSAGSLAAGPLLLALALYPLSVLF
In words: TNAP enzyme inhibition by screening hits, dose response, selectivity assay for mouse IAP inhibitor project, biochemical, human TNAP, uHTS hits (AID 488906). The assay is classed as functional.

Assay [9] addresses Intestinal-type alkaline phosphatase (Homo sapiens, UniProt P09923). In words: inhibition of human intestinal alkaline phosphatase – biochemical, dose response (AID 488876). The class given is functional.
A further assay concerns the target Hexokinase HKDC1 (Homo sapiens, UniProt Q2TB90). Briefly: activation of HKDC1 glucose phosphorylation – biochemical, W721R variant, dose response (AID 504730). The class given is functional.
For assay [10], the target named is Scavenger receptor class B member 1 (Mus musculus, UniProt Q61009). Briefly: mouse SR-BI DiI-HDL uptake blockers – ldlA[mSR-BI] cells, fluorescence, cherry pick, dose response (AID 493194).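 Also: cellular uptake of fluorescent DiI-labeled HDL measured as cell fluorescence.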 The class given is functional, cell-based.
The target of a further assay is Hexokinase-1 (Homo sapiens, UniProt P19367). In words: HK1 enzyme activation by HKDC1 hits – biochemical, selectivity assay for HKDC1 activator project, dose response (AID 504762). The class given is functional.
Assay [11] can be described thus: Fluorescence-based cell-based high throughput dose response assay for inhibitors of the interaction of nucleotide-binding oligomerization domain containing 2 (NOD2) and the receptor-interacting serine-threonine kinase 2 (RIPK2). The conditions noted are these: Homo sapiens. The class given is functional.
Assay [12] concerns the target T4, Histone-lysine N-methyltransferase NSD2 (Homo sapiens, UniProt O96028).
T4 sequence (O96028 whole entry): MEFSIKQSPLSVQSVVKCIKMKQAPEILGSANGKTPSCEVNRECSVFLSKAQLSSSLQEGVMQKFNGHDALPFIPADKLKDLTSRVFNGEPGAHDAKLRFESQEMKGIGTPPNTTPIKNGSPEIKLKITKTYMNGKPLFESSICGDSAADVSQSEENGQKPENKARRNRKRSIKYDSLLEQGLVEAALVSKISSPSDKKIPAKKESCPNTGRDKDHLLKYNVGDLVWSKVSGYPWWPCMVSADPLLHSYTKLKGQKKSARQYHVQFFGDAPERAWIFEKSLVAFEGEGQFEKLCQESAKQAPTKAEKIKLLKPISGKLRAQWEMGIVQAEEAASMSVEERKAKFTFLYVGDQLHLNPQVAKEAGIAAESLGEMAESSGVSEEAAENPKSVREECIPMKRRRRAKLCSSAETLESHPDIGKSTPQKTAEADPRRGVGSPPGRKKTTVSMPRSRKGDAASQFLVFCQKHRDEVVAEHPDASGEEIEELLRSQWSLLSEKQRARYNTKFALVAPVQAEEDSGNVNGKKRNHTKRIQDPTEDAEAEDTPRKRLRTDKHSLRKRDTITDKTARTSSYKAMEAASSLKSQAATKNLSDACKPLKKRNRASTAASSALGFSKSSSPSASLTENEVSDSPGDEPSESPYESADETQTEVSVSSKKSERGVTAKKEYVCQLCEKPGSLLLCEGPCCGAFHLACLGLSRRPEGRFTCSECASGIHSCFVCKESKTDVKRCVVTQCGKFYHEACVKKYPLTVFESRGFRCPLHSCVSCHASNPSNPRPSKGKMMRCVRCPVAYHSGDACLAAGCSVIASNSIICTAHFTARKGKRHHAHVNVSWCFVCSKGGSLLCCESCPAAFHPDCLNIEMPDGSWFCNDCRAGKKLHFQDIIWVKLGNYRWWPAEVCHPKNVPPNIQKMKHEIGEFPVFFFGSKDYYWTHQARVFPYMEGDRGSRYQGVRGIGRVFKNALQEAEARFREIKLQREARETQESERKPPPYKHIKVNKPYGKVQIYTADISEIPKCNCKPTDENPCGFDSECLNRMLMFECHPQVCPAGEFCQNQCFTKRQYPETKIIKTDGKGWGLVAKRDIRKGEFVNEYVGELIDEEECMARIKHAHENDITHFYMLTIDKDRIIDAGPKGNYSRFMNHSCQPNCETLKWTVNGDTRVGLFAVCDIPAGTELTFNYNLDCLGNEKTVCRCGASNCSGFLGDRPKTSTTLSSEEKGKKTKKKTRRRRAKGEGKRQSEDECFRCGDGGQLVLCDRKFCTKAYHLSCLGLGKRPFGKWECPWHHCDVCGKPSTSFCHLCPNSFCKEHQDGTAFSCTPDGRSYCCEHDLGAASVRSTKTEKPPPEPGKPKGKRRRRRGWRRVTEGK
The assay is classed as biochemical.

The next assay addresses Tumor necrosis factor (Homo sapiens, UniProt P01375). Briefly: analog potency on TNFa NF-kB signaling – cell-based, revised, SAR follow-up (AID 2337). The assay is classed as functional.
For assay [13], the target named is Nucleotide-binding oligomerization domain-containing protein 1 (Homo sapiens, UniProt Q9Y239). Briefly: blockers of NOD1 pathway activity – revised, SAR follow-up (AID 2333). The assay is classed as functional.
Assay [14] concerns the target Nucleotide-binding oligomerization domain-containing protein 2 (Homo sapiens, UniProt Q9HC29). In words: PubChem AID 2334. The assay is classed as functional.
A further assay has as its system HEK293. In words: cells. The conditions noted are these: Homo sapiens.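 Also: cells exposed to compound for 14 hours overnight before viability readout.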
The target of assay [15] is Potassium voltage-gated channel subfamily KQT member 2 (Rattus norvegicus, UniProt O88943). Briefly: rat KCNQ2 current potentiators – automated patch clamp, KCNQ2-CHO cells, SAR follow-up (AID 493113). The class given is functional. Background: The patch-clamp technique gives a direct electrical read-out from membranes.

One may read the IC50 as the concentration needed to halve the response being measured. The EC50 is the concentration giving half of the maximal effect. The AC50 is the midpoint of the concentration-response curve, whichever way the signal moves.

Calls of active or inactive are those of the source.

Sequence of Intestinal-type alkaline phosphatase (Mus musculus, UniProt P24822) (P24822 whole entry): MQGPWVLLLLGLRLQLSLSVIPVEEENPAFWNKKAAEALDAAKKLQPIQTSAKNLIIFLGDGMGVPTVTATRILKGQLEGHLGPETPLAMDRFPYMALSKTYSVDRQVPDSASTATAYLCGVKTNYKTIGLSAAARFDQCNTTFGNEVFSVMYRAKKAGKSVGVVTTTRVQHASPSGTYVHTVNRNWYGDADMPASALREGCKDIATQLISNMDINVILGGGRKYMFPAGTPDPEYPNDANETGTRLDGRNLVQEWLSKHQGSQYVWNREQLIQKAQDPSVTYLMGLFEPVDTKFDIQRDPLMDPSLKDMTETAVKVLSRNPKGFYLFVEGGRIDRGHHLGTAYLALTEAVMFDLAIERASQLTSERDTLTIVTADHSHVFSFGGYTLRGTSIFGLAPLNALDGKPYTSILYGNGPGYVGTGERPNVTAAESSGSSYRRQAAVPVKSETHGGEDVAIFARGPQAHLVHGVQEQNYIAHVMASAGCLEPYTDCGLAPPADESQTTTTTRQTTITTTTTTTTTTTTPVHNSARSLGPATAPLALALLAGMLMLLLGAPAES
Sequence of Sphingosine 1-phosphate receptor 1 (P21453 whole entry): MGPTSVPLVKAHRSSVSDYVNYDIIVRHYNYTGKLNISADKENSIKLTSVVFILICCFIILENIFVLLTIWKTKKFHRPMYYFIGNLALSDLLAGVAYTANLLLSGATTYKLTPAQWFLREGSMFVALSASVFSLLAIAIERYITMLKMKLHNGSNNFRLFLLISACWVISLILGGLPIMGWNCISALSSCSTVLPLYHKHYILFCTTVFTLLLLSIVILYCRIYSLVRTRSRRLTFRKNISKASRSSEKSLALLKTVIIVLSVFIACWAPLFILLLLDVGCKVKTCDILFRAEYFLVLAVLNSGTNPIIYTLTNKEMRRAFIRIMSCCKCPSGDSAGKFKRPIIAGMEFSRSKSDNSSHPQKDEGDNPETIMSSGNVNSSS
Sequence of Nucleotide-binding oligomerization domain-containing protein 2 (Q9HC29 whole entry, the tested form may be a part): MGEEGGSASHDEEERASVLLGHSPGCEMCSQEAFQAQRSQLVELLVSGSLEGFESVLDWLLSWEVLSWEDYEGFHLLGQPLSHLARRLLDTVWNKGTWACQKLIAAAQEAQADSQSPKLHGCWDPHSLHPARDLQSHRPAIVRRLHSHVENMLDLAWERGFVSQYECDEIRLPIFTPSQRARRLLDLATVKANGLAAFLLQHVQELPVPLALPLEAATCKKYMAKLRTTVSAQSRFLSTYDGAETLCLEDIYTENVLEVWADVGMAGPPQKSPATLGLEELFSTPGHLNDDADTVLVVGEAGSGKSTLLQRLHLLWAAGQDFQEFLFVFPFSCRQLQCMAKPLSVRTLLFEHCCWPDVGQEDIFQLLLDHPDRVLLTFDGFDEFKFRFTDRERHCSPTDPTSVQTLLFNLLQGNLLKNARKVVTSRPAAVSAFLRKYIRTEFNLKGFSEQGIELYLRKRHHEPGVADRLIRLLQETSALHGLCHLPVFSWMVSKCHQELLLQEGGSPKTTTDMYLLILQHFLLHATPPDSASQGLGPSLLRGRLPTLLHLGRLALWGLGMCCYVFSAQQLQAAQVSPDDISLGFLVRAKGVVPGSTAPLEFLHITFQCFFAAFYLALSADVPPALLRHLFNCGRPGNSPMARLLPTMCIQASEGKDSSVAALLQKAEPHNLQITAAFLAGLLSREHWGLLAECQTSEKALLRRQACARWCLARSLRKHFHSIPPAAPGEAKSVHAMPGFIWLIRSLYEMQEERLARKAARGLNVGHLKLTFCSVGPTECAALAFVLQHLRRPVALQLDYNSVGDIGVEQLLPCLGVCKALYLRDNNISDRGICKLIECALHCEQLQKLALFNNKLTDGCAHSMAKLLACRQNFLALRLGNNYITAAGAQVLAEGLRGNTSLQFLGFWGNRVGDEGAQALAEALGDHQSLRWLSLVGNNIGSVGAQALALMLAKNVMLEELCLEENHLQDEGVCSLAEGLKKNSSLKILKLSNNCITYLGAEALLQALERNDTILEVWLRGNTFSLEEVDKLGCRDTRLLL
Sequence of Sphingosine 1-phosphate receptor 3 (Q99500 whole entry): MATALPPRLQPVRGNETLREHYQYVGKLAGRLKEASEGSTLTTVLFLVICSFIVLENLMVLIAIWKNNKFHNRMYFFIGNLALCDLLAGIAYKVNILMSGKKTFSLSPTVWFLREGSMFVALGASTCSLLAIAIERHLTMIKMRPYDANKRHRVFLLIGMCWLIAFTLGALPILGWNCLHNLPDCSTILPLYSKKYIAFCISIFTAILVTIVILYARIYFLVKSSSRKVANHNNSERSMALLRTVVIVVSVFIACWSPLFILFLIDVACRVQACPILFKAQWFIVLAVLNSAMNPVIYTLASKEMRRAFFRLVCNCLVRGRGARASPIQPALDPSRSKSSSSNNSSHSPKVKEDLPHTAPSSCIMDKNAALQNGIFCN
Sequence of Intestinal-type alkaline phosphatase (Homo sapiens, UniProt P09923) (P09923 whole entry): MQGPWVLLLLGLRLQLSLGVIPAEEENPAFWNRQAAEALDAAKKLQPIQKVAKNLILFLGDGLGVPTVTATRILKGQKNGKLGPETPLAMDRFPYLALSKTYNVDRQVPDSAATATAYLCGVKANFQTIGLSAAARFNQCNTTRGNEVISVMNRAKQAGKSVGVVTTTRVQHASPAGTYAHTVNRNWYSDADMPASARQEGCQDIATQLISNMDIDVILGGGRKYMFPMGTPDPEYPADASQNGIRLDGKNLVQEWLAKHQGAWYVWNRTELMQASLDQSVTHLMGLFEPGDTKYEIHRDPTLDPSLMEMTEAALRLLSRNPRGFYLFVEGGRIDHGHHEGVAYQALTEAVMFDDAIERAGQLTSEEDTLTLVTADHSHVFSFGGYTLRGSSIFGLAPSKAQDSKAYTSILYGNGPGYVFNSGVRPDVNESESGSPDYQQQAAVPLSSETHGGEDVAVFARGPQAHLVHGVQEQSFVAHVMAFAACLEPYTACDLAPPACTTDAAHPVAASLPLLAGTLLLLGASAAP
Sequence of Potassium voltage-gated channel subfamily KQT member 2 (O88943 whole entry): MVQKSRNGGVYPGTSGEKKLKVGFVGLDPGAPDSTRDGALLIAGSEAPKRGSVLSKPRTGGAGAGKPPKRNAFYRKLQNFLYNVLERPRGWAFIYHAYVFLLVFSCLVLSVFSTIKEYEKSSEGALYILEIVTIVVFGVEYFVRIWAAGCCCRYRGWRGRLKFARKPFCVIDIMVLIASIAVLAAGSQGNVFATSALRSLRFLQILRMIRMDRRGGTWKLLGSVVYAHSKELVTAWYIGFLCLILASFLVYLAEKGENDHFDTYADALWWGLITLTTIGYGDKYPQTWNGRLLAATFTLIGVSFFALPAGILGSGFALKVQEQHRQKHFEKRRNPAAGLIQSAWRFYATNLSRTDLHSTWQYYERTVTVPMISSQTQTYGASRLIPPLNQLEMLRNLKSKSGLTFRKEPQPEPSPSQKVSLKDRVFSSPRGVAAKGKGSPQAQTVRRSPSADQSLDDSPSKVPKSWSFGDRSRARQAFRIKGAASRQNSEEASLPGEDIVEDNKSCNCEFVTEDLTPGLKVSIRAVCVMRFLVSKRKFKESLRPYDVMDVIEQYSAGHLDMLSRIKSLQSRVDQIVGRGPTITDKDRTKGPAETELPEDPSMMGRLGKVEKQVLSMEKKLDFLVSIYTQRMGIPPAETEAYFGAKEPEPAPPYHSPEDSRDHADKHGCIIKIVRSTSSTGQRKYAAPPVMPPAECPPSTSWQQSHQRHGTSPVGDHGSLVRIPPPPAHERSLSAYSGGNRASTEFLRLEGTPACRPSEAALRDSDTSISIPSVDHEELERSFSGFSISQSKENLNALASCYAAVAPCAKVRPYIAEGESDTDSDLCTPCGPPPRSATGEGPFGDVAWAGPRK
Sequence of Hexokinase HKDC1 (Q2TB90 whole entry): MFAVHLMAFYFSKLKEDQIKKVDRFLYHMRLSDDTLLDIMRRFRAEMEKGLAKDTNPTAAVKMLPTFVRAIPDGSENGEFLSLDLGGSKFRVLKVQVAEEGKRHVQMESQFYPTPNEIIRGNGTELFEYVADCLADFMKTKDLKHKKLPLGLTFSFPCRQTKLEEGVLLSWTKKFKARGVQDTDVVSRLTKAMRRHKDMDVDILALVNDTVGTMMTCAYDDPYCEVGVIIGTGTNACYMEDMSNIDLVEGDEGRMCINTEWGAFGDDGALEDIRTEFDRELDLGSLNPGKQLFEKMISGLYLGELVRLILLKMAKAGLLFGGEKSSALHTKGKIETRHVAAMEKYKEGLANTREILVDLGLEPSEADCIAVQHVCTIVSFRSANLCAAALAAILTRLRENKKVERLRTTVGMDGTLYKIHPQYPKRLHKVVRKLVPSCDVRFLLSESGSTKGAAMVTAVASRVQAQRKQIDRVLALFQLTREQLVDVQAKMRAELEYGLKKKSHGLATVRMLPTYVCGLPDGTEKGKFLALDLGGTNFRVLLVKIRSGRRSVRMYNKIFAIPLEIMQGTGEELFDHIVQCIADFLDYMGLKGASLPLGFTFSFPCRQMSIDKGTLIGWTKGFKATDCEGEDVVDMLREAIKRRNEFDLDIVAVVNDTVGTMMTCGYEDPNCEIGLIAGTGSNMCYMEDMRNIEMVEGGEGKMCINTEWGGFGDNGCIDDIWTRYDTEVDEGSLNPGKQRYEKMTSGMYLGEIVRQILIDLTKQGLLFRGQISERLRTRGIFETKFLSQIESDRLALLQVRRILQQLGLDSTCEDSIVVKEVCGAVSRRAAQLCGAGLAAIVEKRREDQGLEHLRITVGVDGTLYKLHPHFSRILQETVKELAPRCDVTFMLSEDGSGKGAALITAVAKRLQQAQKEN
Sequence of Tumor necrosis factor (P01375 whole entry, the tested form may be a part): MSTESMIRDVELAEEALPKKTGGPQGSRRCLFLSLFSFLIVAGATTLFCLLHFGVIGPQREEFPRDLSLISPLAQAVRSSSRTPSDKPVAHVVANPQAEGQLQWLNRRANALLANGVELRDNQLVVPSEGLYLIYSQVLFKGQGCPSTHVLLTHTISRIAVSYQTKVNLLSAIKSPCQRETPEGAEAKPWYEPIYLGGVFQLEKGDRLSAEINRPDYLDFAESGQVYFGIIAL

Regarding `CCc1cccc(C)c1NC(=O)c1ccc(-c2cc(OC)ccc2OC)o1`, the IC50 in [1] is > 25 µM (inactive); in assay [2], > 25 µM (inactive); in [3], > 25 µM (inactive); in [4], 513 nM (active); in [5], > 25 µM (inactive).
Consider `Cc1c(Cl)cccc1N=C(S)NCCC(c1ccccc1)c1ccccc1`, for which the concentration for a half-maximal effect (EC50) in [6] was 8.52 µM (active); on Streptokinase A, 3.76 µM (active); in the assay with Streptococcus, > 150 µM (not active). Besides, the IC50 was 8.34 µM (active) in [7], 29 µM (active) in assay [8] and 42.4 µM (active) in [9].
Take `CC(=O)OC1C2(CC3N4C(=O)C5(CO)SSC4(CC31O)C(=O)N5C)OC(C)C(C)(C)C2=O` (stereo unspecified): the 50% effective concentration (EC50) at Hexokinase HKDC1 is 212 nM (active); on Hexokinase-1 it was > 80 µM (inactive). For the same compound, the AC50 in [10] was 5.61 µM (active); in assay [12] it was 1.06 µM (active). In addition, the IC50 in assay [11] was 3.64 µM (active).
Turning to `O=C(Nc1nc2ccccc2n1Cc1ccc(Cl)cc1)c1ccc(Cl)cc1`, the IC50 (on Tumor necrosis factor; in assay [13]; in assay [14]; in the assay on HEK293) was > 20 µM (inactive) in each case.
For the compound `Cc1cc(C)c(NC(=O)C2CCCCC2)c(C)c1`, in assay [15], the EC50 is 1.57 µM (active).

The values are drawn from ChEMBL document CHEMBL1201862, “PubChem BioAssay data set” (2004).
